This passage reports LD50, ED50 and inhibition in vivo results from US4791114A, “2-Benzimidazolylalkylthio (or -sulfinyl or -sulfonyl) derivatives, their preparation and their application as medicinal products” (501 Laboratorios Del, Dr. Esteve, priority 1986, dated 1988).

Series [1] in a line: Acute toxicity in mice (oral LD50, Litchfield and Wilcoxon). The note with it: mouse, in vivo, suspended in 5% gum arabic. The method, then: Method of Litchfield and wilcoxon [Litchfield, J. T. and Wilcoxon, E. J., H. Pharmacol. Exp. Therap., 96, 19-113 (1949)].
The product is administered orally, suspended in 5% gum arabic in double-distilled water. The volume administered is 10 ml/kg. The fifty percent lethal dose (LD50) is calculated according to the method cited.

In series [2] the test system is gastric acid secretion. Put plainly: Inhibition of gastric acid secretion in Shay rats (pylorus ligation). In kind it is in vivo, male Wistar rats. The note with it: Rattus norvegicus, 2 h, intraduodenal, two hours after pylorus ligation; for inhibition in vivo at 40 mg/kg: i.d., read-out: Percentage inhibition of gastric acid secretion. An excerpt: Method of Shay [Shay, H.; Komarov, S. A.; Feis, S. S.; Merange, D.; Grvenstein, M.; Siplet, H.; Gastroenterology, 5, 43 (1945)--Visscher, F. E.; Seay, P. H.; Taxelaar, A. P.; Veldkamp, W.; Vander Brook, M. J.; J. Pharmac. Exp. Ther., 110, 188 (1954)--"Animal Experiments in Pharmacological Analysis", F. R. Domer; C. C. Thomas Pub., Springfield, Ill., USA, 1970, p. 140].
In this test, male Wistar rats weighing 200 to 250 grams are used, the animals being maintained fasted from the day preceding that of the trail, with access to water ad libitum. A minimum of 4 animals is used in each batch.
The rats are anesthetized with ethyl ether, laporotomy is performed and the pylorus is ligated, and the abdominal incision is then sutured. The administration of the products, with the vehicle for the control batch, is performed intraduodenally (i.d.) before the abdominal incision is sutured. The dose administered for the first trail is 40 mg/kg, and the fifty percent effectove dose (ED50) i.d. is also determined in a second trial. The vehicle used is 5% w/v gum arabic in double-distilled water.
Two hours after ligation of the pyrolus, the rats are sacrificed by prolonged anesthesia with ethyl ether, and the volume of the gastric juice is measured and the total acidity determined by means of a pH meter equipped with an automatic burette. For each product and for each dose tested, the percentage inhibition of gastric acid secretion is determined relative to the control batch.

As usually defined, the LD50 is the dose expected to kill half of the subjects tested. In general, ED50 refers to the dose at which the effect has come halfway, by size or by number of responders. Lower therefore signals greater potency. Turning to `c1cnc(SCc2nc3ccccc3[nH]2)nc1` [Example 1, 2-(2-benzimidazolylmethylthio)pyrimidine], in series [1] (female mice), the LD50 stood at 2700 mg/kg. Besides, the LD50 in series [1] (male mice) was determined as 3200 mg/kg. Moreover, in series [2], the 50% effect level (ED50) was put at a dose of 13 mg/kg and the inhibition in vivo at 40 mg/kg amounted to 98%.

Turning to `Cc1cc(C)nc(SCc2nc3ccccc3[nH]2)n1` [Example 3], the LD50 in series [1] (female mice) and in series [1] (male mice) was greater than 3200 mg/kg throughout. Besides, the 50% effect level in series [2] (ED50) was put at a dose of 16 mg/kg. In addition, the inhibition in vivo at 40 mg/kg in series [2] turned out to be 88%.

As for `O=[N+]([O-])c1ccc(SCc2nc3ccccc3[nH]2)nc1` [Example 4], in series [2], it took a dose of 21 mg/kg to reach the 50% effect level (ED50) and the inhibition in vivo at 40 mg/kg was 74%.

`Cc1cc2nc(CSc3ccccn3)[nH]c2cc1C` [Example 6, 5,6-dimethyl-2-(2-pyridylthiomethyl)benzimidazole]: in series [2], it took a dose of 19 mg/kg to reach the 50% effect level (ED50) and the inhibition in vivo at 40 mg/kg is 92%.

As for `[O-][n+]1ccccc1SCc1nc2ccccc2[nH]1` [Example 7], in series [2], the 50% effect level (ED50) was put at a dose of 19 mg/kg and the inhibition in vivo at 40 mg/kg is 95%.

With `O=C(c1ccccc1)c1ccc2nc(CSc3ccccn3)[nH]c2c1` [Example 10, 5-benzoyl-2-(2-pyridylthiomethyl)benzimidazole], in series [2], the ED50 worked out at 14 mg/kg and the inhibition in vivo at 40 mg/kg worked out at 93%.

Turning to `O=C(c1ccccc1)c1ccc2nc(C[S+]([O-])c3ccccn3)[nH]c2c1` (centres unmarked) [Example 27, 5-benzoyl-2-(2-pyridylsulfinylmethyl)benzimidazole], in series [1] (female mice), the median lethal dose (LD50) worked out at 3200 mg/kg. For the same molecule, the LD50 in series [1] (male mice) was 3200 mg/kg. In series [2], the ED50 stood at 7 mg/kg and the inhibition in vivo at 40 mg/kg is 95%.

Consider `[O-][S+](Cc1nc2ccccc2[nH]1)c1ccccn1` (centres unmarked) [Example 28, 2-(2-pyridylsulfinylmethyl)benzimidazole], for which, in series [1] (female mice), the LD50 came to 3200 mg/kg. Also, the LD50 in series [1] (male mice) turned out to be 3200 mg/kg. Also, in series [2], the 50% effect level (ED50) was put at a dose of 8 mg/kg and the inhibition in vivo at 40 mg/kg turned out to be 90%.

Molecule `O=[N+]([O-])c1ccc([S+]([O-])Cc2nc3ccccc3[nH]2)nc1` (centres unmarked) [Example 29] gave an LD50 in series [1] (female mice) of 2400 mg/kg. Besides, the LD50 in series [1] (male mice) was determined as 2400 mg/kg. Besides, in series [2], the ED50 was determined as 4 mg/kg and the inhibition in vivo at 40 mg/kg worked out at 90%.

Molecule `Cc1cc2nc(C[S+]([O-])c3ccccn3)[nH]c2cc1C` (centres unmarked) [Example 31] displayed an LD50 in series [1] (female mice) greater than 6400 mg/kg. The LD50 in series [1] (male mice) was greater than 6400 mg/kg. Moreover, in series [2], the ED50 came out at 15 mg/kg and the inhibition in vivo at 40 mg/kg is 96%.

`[O-][S+](Cc1nc2cc(Cl)ccc2[nH]1)c1ccccn1` (centres unmarked) [Example 32]: in series [2], the ED50 amounted to 17 mg/kg and the inhibition in vivo at 40 mg/kg was determined as 92%.

`Cc1cnc([S+]([O-])Cc2nc3cc(C(=O)c4ccccc4)ccc3[nH]2)c(C)c1` (centres unmarked) [Example 41]: in series [2], the ED50 is 10 mg/kg and the inhibition in vivo at 40 mg/kg stood at 80%.

Consider `Cc1ccnc([S+]([O-])Cc2nc3cc(C(=O)c4ccccc4)ccc3[nH]2)c1` (centres unmarked) [Example 44], for which, in series [2], the 50% effect level (ED50) was put at a dose of 10 mg/kg and the inhibition in vivo at 40 mg/kg was 66%.

Consider `O=S(=O)(Cc1nc2ccc(Cl)cc2[nH]1)c1ccccn1` [Example 54, 5-chloro-2-(2-pyridylsulfonylmethyl)benzimidazole], for which, in series [2], it took a dose of 24 mg/kg to reach the 50% effect level (ED50) and the inhibition in vivo at 40 mg/kg was determined as 70%.

`Cn1c(C[S+]([O-])c2ccccn2)nc2cc(C(=O)c3ccccc3)ccc21` (centres unmarked) [Example 60, 5-benzoyl-1-methyl-2-(2-pyridylsulfinylmethyl)benzimidazole]: in series [2], the 50% effect level (ED50) was put at a dose of 21 mg/kg and the inhibition in vivo at 40 mg/kg turned out to be 75%.

As to `CCOC(=O)n1c(C[S+]([O-])c2ccccn2)nc2ccc(C(=O)c3ccccc3)cc21` (centres unmarked) [Example 63, 6-benzoyl-1-carboxyethyl-2-(2-pyridylsulfinylmethyl)benzimidazole], in series [2], the ED50 was 16 mg/kg and the inhibition in vivo at 40 mg/kg is 81%.
